pIC50, pKi: −log10 of the molar value. Where “and” joins values, the source holds several entries; their conditions need not be identical. Equal entries are not always repeated. Structures can show the parent of a compound that is named as a salt. Where two headings read alike, the source gives them in different places.
How the values were obtained:
[1] = target: T1, 5-HT3 (Mus musculus, UniProt P23979); assay: 5-HT3 binding, NG108-15 cells
T1 construct: NG108-15 Cells; endogenous in cells; host or cells: NG108-15 cells
T1 sequence (P23979 24-489): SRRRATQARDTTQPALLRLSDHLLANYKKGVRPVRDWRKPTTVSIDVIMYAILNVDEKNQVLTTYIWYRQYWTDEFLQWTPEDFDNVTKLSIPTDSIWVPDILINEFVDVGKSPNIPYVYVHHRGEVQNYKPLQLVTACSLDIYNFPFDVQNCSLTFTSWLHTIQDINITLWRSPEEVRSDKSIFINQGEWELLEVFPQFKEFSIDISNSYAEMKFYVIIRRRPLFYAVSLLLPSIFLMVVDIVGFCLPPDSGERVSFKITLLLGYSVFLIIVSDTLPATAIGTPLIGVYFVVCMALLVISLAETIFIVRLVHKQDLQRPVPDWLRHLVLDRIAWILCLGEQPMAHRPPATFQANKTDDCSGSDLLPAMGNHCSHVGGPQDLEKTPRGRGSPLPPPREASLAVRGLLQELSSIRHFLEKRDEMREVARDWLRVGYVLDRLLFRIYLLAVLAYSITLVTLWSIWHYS
Text: (§1) 5-HT3 antagonism can be determined by the radioligand receptor binding assay as described herein and in the in vivo Bezold-Jarisch reflex procedure.

[2] = tested on: 5-HT-induced bradycardia; assay: Bezold-Jarisch reflex (5-HT-induced bradycardia) in pentobarbital anesthetized mice; assay type: in vivo
Method: as §1
The test sample is administered i.p. (mg/kg) to a group of 3 mice. […] A greater than 50 percent (>50) reduction in the bradycardic response relative to vehicle-treated control mice is considered significant.
This method has been described by Saxena, P. R. and Lawang, A., Arch. Int. Pharmacodyn., 277:235-252, 1985.

[3] = target: T2, 5-HT3 receptor (Rattus norvegicus, UniProt P35563); assay: [3H]-GR65630 radioligand receptor binding assay, rat brain cortex membranes; conditions: for Hill Coefficient: 0.2 nM [3H]-GR65630
T2 construct: Brain cortices are obtained from male rats and a membrane fraction prepared by standard techniques; from tissue; host or cells: rat brain cortex membranes
T2 sequence (P35563 24-483): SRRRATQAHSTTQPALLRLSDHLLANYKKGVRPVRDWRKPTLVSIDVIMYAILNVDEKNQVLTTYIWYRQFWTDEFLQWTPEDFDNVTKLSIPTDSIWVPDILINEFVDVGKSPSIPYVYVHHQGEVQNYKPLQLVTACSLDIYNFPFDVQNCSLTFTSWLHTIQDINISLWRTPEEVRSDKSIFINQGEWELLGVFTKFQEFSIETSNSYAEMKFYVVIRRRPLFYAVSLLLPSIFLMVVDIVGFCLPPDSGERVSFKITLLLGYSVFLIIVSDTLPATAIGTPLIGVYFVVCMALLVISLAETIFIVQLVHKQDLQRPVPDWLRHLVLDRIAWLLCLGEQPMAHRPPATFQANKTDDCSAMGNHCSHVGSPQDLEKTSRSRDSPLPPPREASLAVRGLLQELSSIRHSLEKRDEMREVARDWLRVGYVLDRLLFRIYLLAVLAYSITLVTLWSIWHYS
Method: as §1
GR65630 binds to the 5-HT3 receptor. Brain cortices are obtained from male rats and a membrane fraction prepared by standard techniques. 0.04 mg of membrane prep is incubated with 0.2 nM [^3 H]-GR656630 for 60 minutes at 22° C. […] Membranes are filtered and washed 3 times and the filters are counted to determine [3H]-GR65630 specifically bound.*
Effect of Reference Compounds on
Kilpatrick GJ, Jones BJ and Tyers MB. Identification and distribution of 5-HT3 receptors in rat brain using radioligand binding. Nature, 330: 746-748, 1987.

[4] = several examples have two IC50 values, read-out: 5-HT3 binding: NG108-15 cells IC50
[5] = Mus musculus, ip, 0.5 h; read-out: Minimum Effective Dose (MED)
[6] = Mus musculus, ip, 0.5 h, read-out: Minimum Effective Dose (MED)

## O=C(NC1CN2CCC1CC2)c1cc(Cl)cn2ccnc12 (stereo not shown) [Example 7, N-(1-Azabicyclo[2.2.2]octan-3-yl)-6-chloroimidazo[1,2-a]pyridine-8-carboxamide dihydrochloride]
[1]
  pKi: 7.92
[1]; [4]
  pIC50: 7.76 and 7.64

## CN1CCC(=C2c3ccccc3C=Cc3ccccc32)CC1 [cyproheptadine, reference compound]
[2]; [5]
  minimal effective dose: 5 mg/kg

## O=C(N[C@H]1CCN2CCC[C@@H]1C2)c1cc(Cl)cn2ccnc12 (relative stereo) [Example 1, endo-N-(1-Azabicyclo[3.3.1]nonan-4-yl)-6-chloroimidazo[1,2-a]pyridine-8-carboxamide, dihydrochloride]
[1]
  pKi: 6.86
[2]; 1 mg/kg i.p.
  Bezold Jarisch reflex (mice); % Inhibition @ Dose (IP): 68%
[2]; 3 mg/kg i.p.
  Bezold Jarisch reflex (mice); % Inhibition @ Dose (IP): 73%
[2]; 10 mg/kg i.p.
  Bezold Jarisch reflex (mice); % Inhibition @ Dose (IP): 87%

## O=c1[nH]c2ccccc2n1CCCN1CCC(n2c(=O)[nH]c3cc(Cl)ccc32)CC1 [domperidone, reference compound]
[2]; [6]
  minimal effective dose: > 10 mg/kg

## CN1[C@@H]2CC[C@H]1C[C@@H](NC(=O)c1cc(Cl)cn3ccnc13)C2 [Example 3, endo-N-(8-Methyl-8-azabicyclo [3.2.1]octan-3-yl)-6-chloroimidazo[1,2-a]pyridine-8-carboxamide, dihydrochloride]
[1]
  pKi: 7.30
[1]; [4]
  pIC50: 7.71 and 7.00

## O=C(NC1CN2CCC1CC2)c1cccn2ccnc12 (stereo not shown) [Example 8, N-(1-Azabicyclo[2.2.2]octan-3-yl)imidazo[1,2-a]pyridine-8-carboxamide, dihydrochloride]
[1]; read-out: 5-HT3 binding: NG108-15 cells IC50, several examples have two IC50 values
  pIC50: 7.15
[2]; 0.5 mg/kg i.p.
  Bezold Jarisch reflex (mice); % Inhibition @ Dose (IP): 82%
[2]; 2.5 mg/kg i.p.
  Bezold Jarisch reflex (mice); % Inhibition @ Dose (IP): 88%
[2]; 5 mg/kg i.p.
  Bezold Jarisch reflex (mice); % Inhibition @ Dose (IP): 95%
[2]; 10 mg/kg i.p.
  Bezold Jarisch reflex (mice); % Inhibition @ Dose (IP): 100%

## Cc1[nH]cnc1CCC(=O)c1cn(C)c2ccccc12 [GR65630]
[3]; [3H]-GR65630, rat cortex membranes
  Bmax: 154 fmol/mg protein
[3]; [3H]-GR65630, non-specific binding with 1 uM ICS 205-930
  Specific Binding: 70

## CN1[C@@H]2C[C@@H](OC(=O)[C@H](CO)c3ccccc3)C[C@H]1[C@@H]1O[C@@H]12 [scopolamine, reference compound]
[2]; [6]
  minimal effective dose: 2.5 mg/kg

## COc1cc(N)c(Cl)cc1C(=O)NC1CN2CCC1CC2 (stereo not shown) [Zacopride]
[3]
  Hill Coefficient: 0.86

## CCN(CC)CCNC(=O)c1cc(Cl)c(N)cc1OC [metoclopramide, reference compound]
[2]; [6]
  minimal effective dose: 5 mg/kg

## CN1[C@@H]2CCC[C@H]1C[C@@H](NC(=O)c1cc(Cl)cn3ccnc13)C2 [Example 6, endo-N-(9-Methyl-9-azabicyclo[3.3.1]nonan-3-yl)-6-chloroimidazo[1,2-a]pyridine-8-carboxamide hydrochloride]
[1]
  pKi: 8.31

## CN1[C@@H]2CC[C@H]1C[C@@H](NC(=O)c1cccn3ccnc13)C2 [Example 4, endo-N-(8-methyl-8-azabicyclo[3.2.1]octan-3-yl)imidazo [1,2-a]pyridine-8-carboxamide, hydrochloride]
[1]
  pKi: 6.38
[1]; [4]
  pIC50: 6.30 and 6.08
[2]; 3 mg/kg i.p.
  Bezold Jarisch reflex (mice); % Inhibition @ Dose (IP): 2%
[2]; 10 mg/kg i.p.
  Bezold Jarisch reflex (mice); % Inhibition @ Dose (IP): 82%

## O=C(NC1C2CC3CC1CN(C3)C2)c1cc(Cl)cn2ccnc12 (stereo not drawn) [Example 11, exo-N-(1-azatricyclo[3.3.1.1^3,7]decan-4-yl)-6-chloroimidazo[1,2-a]pyridine-8-carboxamide, monohydrochloride]
[1]; [4]
  pIC50: < 7.00

## CN1C2CCCC1CC(NC(=O)c1nn(C)c3ccccc13)C2 (stereo not shown) [BRL-43694, reference compound]
[2]; [6]
  minimal effective dose: 0.05 mg/kg

## O=C(N[C@H]1[C@H]2C[C@@H]3CN(C2)C[C@@H]31)c1cc(Cl)cn2ccnc12 (relative stereo) [Example 9, (±)-endo-N-(Hexahydro-1H-2,5β-methano-3aα,6aα-cyclopenta[c]pyrrol-4α-yl)-6-chloroimidazo[1,2-a]pyridine-8-carboxamide, monohydrochloride]
[1]
  pKi: 7.19
[1]; [4]
  pIC50: 7.80 and 6.90

## COc1cc(N)c(Cl)cc1C(=O)NC1CCN(CCCOc2ccc(F)cc2)CC1OC (stereo not shown) [cisapride, reference compound]
[2]; [5]
  minimal effective dose: 5 mg/kg

## CN1[C@@H]2CC[C@H]1C[C@@H](OC(=O)c1c[nH]c3ccccc13)C2 [ICS 205-930]
[3]
  Hill Coefficient: 1.0

## Cc1nccn1CC1CCc2c(c3ccccc3n2C)C1=O (stereo not shown) [GR-38032, reference compound]
[2]; [5]
  minimal effective dose: 0.5 mg/kg

## CC[C@@H](CO)NC(=O)[C@@H]1C=C2c3cccc4c3c(cn4C)C[C@H]2N(C)C1 [methysergide, reference compound]
[2]; [6]
  minimal effective dose: > 10 mg/kg

## CN1[C@@H]2CC[C@H]1C[C@H](NC(=O)c1cccn3ccnc13)C2 [Example 5, exo-N-(8-methyl-8-azabicyclo[3.2.1]octan-3-yl)imidazo[1,2-a]pyridine-8-carboxamide, hydrochloride]
[1]
  pKi: 6.50
[1]; [4]
  pIC50: 6.32 and 6.20
[2]; 10 mg/kg i.p.
  Bezold Jarisch reflex (mice); % Inhibition @ Dose (IP): 80%

## O=C(N[C@H]1[C@H]2C[C@@H]3CN(C2)C[C@@H]31)c1cccn2ccnc12 (relative stereo) [Example 10, (±)-endo-N-(Hexahydro-1H-2,5β-methano-3aα,6aα-cyclopenta[c]pyrrol-4α-yl)imidazo[1,2-a]pyridine-8-carboxamide, hydrochloride]
[1]
  pKi: 6.91
[1]; [4]
  pIC50: 6.70 and 6.61
[2]; 10 mg/kg i.p.
  Bezold Jarisch reflex (mice); % Inhibition @ Dose (IP): 81%

## CNC1(C)C2CCC(C2)C1(C)C (stereo not shown) [mecamylamine, reference compound]
[2]; [5]
  minimal effective dose: 2.5 mg/kg

## CCc1nc(C(=O)N[C@H]2[C@H]3C[C@@H]4CN(C3)C[C@@H]42)c2ccccn12 (relative stereo) [Example 16, (±)-endo-N-(Hexahydro-1H,2,5β-methano-3aα,6aα-cyclopenta[c]pyrrol-4α-yl)-3-ethylimidazo[1,5-a]pyridine-1-carboxamide, monohydrochloride]
[1]; [4]
  pIC50: 7.52

## COc1ccc2[nH]cc(C3=CCNCC3)c2c1 [RU24969]
[3]
  Hill Coefficient: 1.0

## CO[C@@H]1CN(CCCOc2ccc(F)cc2)CC[C@@H]1NC(=O)c1cccn2ccnc12 (relative stereo) [Example 13, Cis-N-[[3-(4-Fluorophenoxy)propyl]-3-methoxy-4piperidinylamine]imidazo[1,2-a]pyridine-8-carboxamide]
[2]; 10 mg/kg i.p.
  Bezold Jarisch reflex (mice); % Inhibition @ Dose (IP): 23%

## Cl.Cl.O=C(NC1CCN2CCCC1C2)c1cccn2ccnc12 (stereo not drawn) [Example 2, endo-N-(1-Azabicyclo[3.3.1]nonan-4-yl)imidazo[1,2-a]pyridine-8-carboxamide, dihydrochloride]
[2]; 5 mg/kg i.p.
  Bezold Jarisch reflex (mice); % Inhibition @ Dose (IP): 1%
[2]; 10 mg/kg i.p.
  Bezold Jarisch reflex (mice); % Inhibition @ Dose (IP): 53%

## c1ccc2nc(N3CCNCC3)ccc2c1 [Quipazine]
[3]
  Hill Coefficient: 0.86

## CCN(CC)CCNC(=O)c1cccn2ccnc12 [Example 12, N-[2-(Diethylamino)ethyl]imidazo[1,2-a]pyridine-8-carboxamide]
[1]; [4]
  pIC50: 7.77

## O=C(c1ccc(F)cc1)C1CCN(CCn2c(=O)[nH]c3ccccc3c2=O)CC1 [ketanserin, reference compound]
[2]; [5]
  minimal effective dose: > 10 mg/kg

## CCc1cc(C(=O)N[C@H]2[C@H]3C[C@@H]4CN(C3)C[C@@H]42)c2ccccn12 (relative stereo) [Example 15, (±)-endo-N-(Hexahydro-1H-2,5β-methano-3aα,6aα-cyclopenta[c]pyrrol-4aα-yl)-3-ethylindolizine-1-carboxamide monohydrochloride]
[1]; [4]
  pIC50: 7.58
